Test results as given in patent publication US11987579B2 (Duke University, priority 2018, dated 2024).
Like-named read-outs stand apart in the source and are kept apart here. Values belong to the molecule of their own block, whether it stands above or below them.

What was measured:
[1] = system: Fzd1-GFP; test: Frizzled 1-GFP (Fzd1-GFP) internalization assay; format: cell-based; conditions: 12.5 μM, 6 h, 37° C., U20S cells stably expressing Fzd1-GFP, confocal microscopy, vs DMSO
Protocol: The Frizzled 1-GFP (Fzd1-GFP) assay was performed following a procedure similar to that previously reported (Chen et al., Biochemistry 2009, 48, 10267). Briefly, U20S cells stably expressing Fzd1-GFP were plated in con local dishes and incubated at 37° C. with 5% CO2. After 24 hours the cells were treated with 12.5 μM of test compound (dissolved in DMSO) or DMSO alone in media as a control for 6 hours at 37° C. and then fixed with 4% paraformaldehyde. The cells were then examined by microscopy using an LSM 510-Meta confocal microscope (Carl Zeiss, Thornwood, N.Y., USA) equipped with 40× and 100×apo chromat objectives. GFP was excited using a 488-nm argon laser line. Images were processed using the LSM software Image Browser.

[2] = system: Wnt/β-catenin target gene protein levels; test: Evaluation of Wnt signaling inhibition by Western blot; format: cell-based; conditions: 5 μM, 18 h; HCT116, SW-480 and CRC240 cells
Protocol: All cells were plated in 6 well-plates and allowed to attach overnight in a 5% CO2 incubator at 37° C. to reach 50-70 percent confluency. The cells were then treated with the indicated compound for 18 hours. Whole cell lysates were prepared by adding 200 μL 1.5× Laemmli sample buffer. Cytosolic lysates were prepared by treating cells with hypotonic buffer and dispersing cell aggregates by drawing the lysate buffer in and out a syringe equipped with 25G×1 needles. The cytosolic lysate was centrifuged at 15,000 rpm for 120 minutes, 200 μL of cytosol lysate was collected and 67 μL of 4× Laemmli sample buffer was added. Whole cell lysates were subjected to Western blot analysis using antibodies to c-Myc (Santa Cruz Biotechnology, catalog number SC-40), Cyclin D1 (Cell Signaling Technology, catalog number 2978), and Survivin (Cell Signaling Technology, catalog number 2808). Cytosol lysate were subjected to Western blot analysis using antibodies to β-catenin (Santa Cruz Biotechnology SC-7963) and Axin2 (Cell Signaling Technology, catalog number 2151). An antibody to β-actin (Santa Cruz Biotechnology, catalog number SC-47798) was used as a loading control.

[3] = Pharmacokinetic analysis of DK419 in mouse plasma after oral dose; format: in vivo, NOD/SCID mice; conditions: mice; for Cmax: read-out: Cmax (second line)
Protocol: DK419 was dissolved in 10% N-Methyl pyrrolidinone (Sigma, catalog number 328634) and 90% PEG300 (Sigma, catalog number 20237) at 0.2 mg/mL, and dosed orally to NOD/SCID mice (n=4) at 1 mg/kg. Blood samples (20 μL) were collected serially from tail vein into vials containing 1 μL of 1000 U/mL heparin at the following time-points: pre-dose, 0.25, 0.5, 1, 2, 4, 8, 24, 48, and 72 h after drug administration. After centrifugation at 1300 g for 5 min at room temperature, plasma was separated and stored at −80° C. until the analysis.
Quantification of DK419 in mouse plasma was started by vigorous agitation of 4 μL sample, 10 μL of 20 ng/mL DK4-106-3 (in-house made internal standard analog), 20 μL of water, and 100 μL of ethyl-acetate. After centrifugation at 16,000 g for 5 min at room temperature, 80 μL of organic (upper) layer was dried under nitrogen stream, residue reconstituted with a mixture of 50% mobile phase A (10 mM ammonium acetate, 0.1% formic acid) and 50% mobile phase B (methanol), and 5 μL injected into LC/MS/MS system. Analysis was performed on Shimadzu series 20A LC/Applied Biosystems/SCIEX API 4000 QTrap MS/MS instrument. Column: Agilent Eclipse 4.6×50 ram, 1.8 μm at 50° C. Elution gradient: 0-2 min 50-90% B, 2-2.5 min 90% B, 2.5-2.7 min, 90-50% B; flow […]. MS/MS transitions followed: 405.8/218.9 (DK419) and 331.8/311.8 (DK4-106-3; int. std.). Run time: 5 min. Calibration samples were prepared by adding pure DK419 to pooled mouse plasma in 2.4 ng/mL (LLOQ)-1000 ng/mL range and analyzed alongside the PK study samples. The calibration curve was linear (r=0.999).

[4] = niclosamide 200 mg/kg oral, mice, non-compartmental, cited from earlier work
[5] = system: HCT116 cells; conditions: 0.5 and 1.5 μM; cited from earlier work
[6] = DK419 1 mg/kg oral, compartmental
[7] = DK419 1 mg/kg oral, non-compartmental

Fzd1-GFP receptor internalization (green fluorescent internal puncta) [1]: robust punctate pattern
AUCinf [3, 6]: 16300 ng·h/mL (per kg BW)
AUCinf/DOSE [3, 6]: 16.3 µg·h/mL (per mg)
t1/2-absorption [3, 6]: 2.0 h
t1/2-elimination [3, 6]: 10.8 h
Tmax ([3]; DK419 1 mg/kg oral, compartmental, 1st order extrav. input, 1st order elimination): 5.85 h
Cmax [3, 6]: 1790 nM
AUCinf [3, 7]: 16900 ng·h/mL (per kg BW)
AUCinf/DOSE [3, 7]: 16.9 µg·h/mL (per mg)
CL/F [3, 7]: 0.06 L/h (per kg BW)
MRT [3, 7]: 15.8 h
t1/2-elimination [3, 7]: 9.2 h
Tmax ([3]; DK419 1 mg/kg oral, non-compartmental extravascular input): 4.5 h
AUC0-LAST ([3]; DK419 1 mg/kg oral, non-compartmental, 0-72 h): 16800 ng·h/mL (per kg BW)
Cmax [3, 7]: 1840 nM
CL/F ([3]; NOD/SCID, mouse, plasma, DK419 1 mg/kg oral, compartmental, read-out: CL/F (converted)): 1 mL/min/kg
time for which plasma levels were sustained ([3]; single 1 mg/kg oral dose): more than 24 hours
plasma concentration at 24 hours relative to its IC50 in the TOPFlash and MTS assays ([3]; single 1 mg/kg oral dose, 24 hours): 3 fold
SMILES: O=C(Nc1ccc(C(F)(F)F)cc1)c1cc(Cl)cc2nc(C(F)(F)F)[nH]c12 [DK419, 6-chloro-2-(trifluoromethyl)-N-(4-(trifluoromethyl)phenyl)-1H-benzo[d]imidazole-4-carboxamide]
levels of Axin2, β-catenin, c-Myc, Cyclin D1 and Survivin by Western blot [2]: reduced levels

Fzd1-GFP receptor internalization (green fluorescent internal puncta) [1]: robust punctate pattern
SMILES: O=C(Nc1ccc([N+](=O)[O-])cc1Cl)c1cc(Cl)ccc1O [Niclosamide, reference compound]
levels of Axin2, β-catenin, c-Myc, Cyclin D1 and Survivin by Western blot [2]: reduced levels
AUC0-LAST ([4]; 0-24 h): 1010 ng·h/mL (per kg BW)
AUCinf [4]: 1020 ng·h/mL (per kg BW)
MRT [4]: 6.8 h
Cmax ([4]; read-out: Cmax (second line)): 2730 nM
oxygen consumption rate in HCT116 cells [5]: caused oxygen consumption rate to increase
